Measurements published in patent US20140107116A1, “BENZOTHIAZOLE DERIVATIVES FOR THE TREATMENT OF DIABETES” (MERCK SERONO SA, priority 2003, published 2014).

System: db/db mice
Assay: Oral postprandial glycemia in db/db mice (experimental model of type II diabetes)
Type: in vivo
Details: 100 mg/kg p.o., db/db mice fasted 20 h then fed, compared to vehicle group; for decrease in blood glucose level: 4 hrs after administration; for decrease in insulin level: serum insulin (ELISA) 4 hrs after administration
Protocol: In Vivo Assay: Experimental Model of Type II Diabetes (Oral Postprandial Glycemia in db/db Mice)
The following assay aims at determining the anti-diabetic effect of the test compounds of formula (I) in a model of postprandial glycemia in db/db mice, in vivo.
The assay was performed as follows:
A total of 18 db/db mice (about 8-9 weeks; obtained from IFFACREDO, l'Arbreste, France) were fasted during 20 hours.
3 groups, each consisting of 6 animals were formed: • Group 1: The animals were administered (per os) a dose of […] of vehicle. • Group 2: The animals were administered (per os) a dose of 50 mg/kg of the test compound according to formula (I). • Group 3: The animals were administered (per os) a dose of 100 mg/kg of the test compound according to formula (I).
After oral administration of the compounds of formula (I) solubilized or suspended in CarboxyMethylCellulose (0.5%), Tween 20 (0.25%) and water as vehicle, the animals had access to commercial food (D04, UAR, Villemoisson/Orge, France) ad libitum. The diabetic state of the mice was verified by determining the blood glucose level before drug administration. Blood glucose and serum insulin levels were then determined 4 hrs after drug administration.
The determination of the blood glucose level was performed using a glucometer (Precision Q.I.D., Medisense, Abbot, ref. 212.62.31).
The determination of the Insulin level was performed using an ELISA kit (Crystal CHEM, Ref. INSK R020).
Changes in blood glucose and serum insulin of drug treated mice were expressed as a percentage of control (group 1: vehicle treated mice).

Compound | decrease in blood glucose level | decrease in insulin level
N#CC(c1ccnc(NCCc2cccnc2)n1)c1nc2ccccc2s1 (stereo not shown) [1,3-benzothiazol-2-yl(2-{[2-(3-pyridinyl)ethyl]amino}-4-pyrimidinyl)acetonitrile] | 38% | 64%
N#CC(c1ccnc(OCc2ccc(CN3CCOCC3)cc2)n1)c1nc2ccccc2s1 (stereo not shown) [1,3-benzothiazol-2-yl(2-{[4-(morpholin-4-ylmethyl)benzyl]oxy}-pyrimidin-4-yl)acetonitrile] | 22% | 36%
